Experimental data taken from publication PMC7660940, “Gerardiins A–L and Structurally Related Phenanthrenes from the Halophyte Plant Juncus gerardii and Their Cytotoxicity against Triple-Negative Breast Cancer Cells” (Journal of Natural Products, 2020).
Like-named read-outs stand apart in the source and are kept apart here.

Legend:
[1] = system: 4T1 (mouse triple-negative breast cancer cells); assay: MTT viability assay / IC50 determination in 4T1 cells; assay type: cell-based; settings: for cytotoxic effect on 4T1 cells, MTT assay: 20 μM; for cytotoxic effect on 4T1 cells, MTT assay / cytotoxicity (viability of 4T1 cells), MTT assay: 48 h; for cytotoxicity (viability of 4T1 cells), MTT assay: 10 or 20 μM, Figure S74; for IC50: MTT assay, 48 h treatment, n = 6–8, read-out: IC50 [95% C.I.], 4T1
Method: (§1) 4T1 (mouse triple-negative breast cancer cells) were cultured in RPMI (Roswell Park Memorial Institute) 1640 medium supplemented with 5% fetal bovine serum (FBS) (both from Thermo Fisher Scientific, Waltham, MA, USA). MDA-MB-231 (human triple-negative breast cancer cells, abbreviated as MDA) were cultured in DMEM (Dulbecco’s modified Eagle’s medium, Thermo Fisher Scientific) + 5% FBS. D3 (hCMEC/D3 human cerebral microvascular endothelial cells) were kept in rat tail collagen-coated dishes in EBM-2 (endothelial basal medium-2, Lonza, Basel, Switzerland) complemented with 2% FBS and an EGM-2MV kit (Lonza).
(§2) Viability and impedance measurements were performed in the log growth phase of tumor cells and in the stationary phase of endothelial cells.
(§3) For the MTT (3-[4,5-dimethylthiazole-2-yl]-2,5-diphenyltetrazolium bromide) viability assay, cells were plated in 96-well plates (Corning, Corning, NY, USA). The seeding density of the cells was 5000/well (for 4T1 or MDA cells) or 25 000/well (for D3 cells). After 48 h, half of the medium was replaced with serum-free medium, containing the test compounds in a final concentration of 10 or 20 μM. Control wells received solvent (DMSO) in up to a 0.2% concentration. After 48 h, MTT reagent (Sigma-Aldrich, St. Louis, MO, USA) was added to the cells in a final concentration of 2.5 mg/mL. After incubation at 37 °C for 30 min, acidified isopropanol solution was added to each well. Absorbance was measured at 595 nm with a FLUOstar OPTIMA microplate reader (BMG LABTECH, Offenburg, Germany). Doxorubicin was used as a positive control, at a concentration of 10 μM.
(§4) For determining IC50 values, nine-step, 2-fold serial dilutions of the test compounds were applied, starting from 100 μM. Cells were treated for 48 h, and viability was measured with the MTT assay, as described above. Half-maximum inhibitory concentrations (IC50) were calculated via nonlinear dose–response curve fitting by the log(inhibitor) vs response (variable slope) model of GraphPad Prism 5.01 (GraphPad Software, San Diego, CA, USA) by using automatic outlier elimination at Q = 1.0.

[2] = system: 4T1 (mouse triple-negative breast cancer cells); assay: Impedance measurement (xCELLigence RTCA, cell index) in 4T1 cells; assay type: cell-based; settings: 20 μM, 48 h
Method: as §1, §2
For impedance measurements, cells were plated in 96-well E-plates having microelectrodes integrated on the bottom (ACEA Biosciences, San Diego, CA, USA) and allowed to attach onto the electrode surface for 48 h. Afterward, cells were treated with the test compounds as described above. Electrical impedance was recorded every 30 min for 48 h using an xCELLigence real-time cell analysis (RTCA) instrument (ACEA Biosciences). Cell index was automatically calculated by the software of the instrument.

[3] = system: MDA-MB-231 (human triple-negative breast cancer cells); assay: MTT viability assay / IC50 determination in MDA-MB-231 cells; assay type: cell-based; settings: for cytotoxicity (viability of MDA cells), MTT assay: 10 or 20 μM, 48 h, Figure S74; for IC50: MTT assay, 48 h treatment, n = 6–8, read-out: IC50 [95% C.I.], MDA-MB-231
Method: as §1, §2, §3, §4

[4] = system: D3 (hCMEC/D3 human cerebral microvascular endothelial cells); assay: MTT viability assay / IC50 determination in D3 endothelial cells; assay type: cell-based; settings: for cytotoxicity (viability of D3 cells), MTT assay: 10 or 20 μM, 48 h, Figure S74; for IC50: MTT assay, 48 h treatment, n = 6–8, read-out: IC50 [95% C.I.], D3
Method: as §1, §2, §3, §4

[5] = system: HeLa cervical cancer cells; set-up: method as in PMID 31005716; settings: cited from earlier work
[6] = system: A2780 human ovarian cancer cells; set-up: method as in Bús et al. 8; settings: ref Bús et al. 8; cited from earlier work

Row | Molecule | cytotoxic effect on 4T1 cells, MTT assay [1] | cytotoxic effect on 4T1 cells, impedance measurements (cell index) [2] | cytotoxicity (viability of MDA cells), MTT assay [3] | cytotoxicity (viability of 4T1 cells), MTT assay [1] | cytotoxicity (viability of D3 cells), MTT assay [4] | further results
1 | Cc1c(O)ccc2c1CCc1cc(O)cc(C=O)c1-2 [2,7-dihydroxy-5-formyl-1-methyl-9,10-dihydrophenanthrene] | not cytotoxic | not cytotoxic | – | – | – | –
2 | Cc1c(O)ccc2c1CCc1cc(O)cc(C3CC=Cc4c5c(cc(O)c43)CCc3c-5ccc(O)c3C)c1-2 (stereo not drawn) [Compound 9, Gerardiin I] | – | – | cytotoxic | cytotoxic | cytotoxic | IC50 ([3]; Homo sapiens, MDA-MB-231, 48 h): < 10 µM; IC50 [3]: 8 µM; IC50 [1]: 7.8 µM; IC50 ([1]; Mus musculus, 4T1, 48 h): < 10 µM; IC50 ([4]; Homo sapiens, hCMEC/D3): 21.6 µM
3 | C=Cc1cc(O)cc2ccc3c(C)c(O)ccc3c12 [Compound 14, dehydroeffusol] | – | – | no or very low cytotoxicity | no or very low cytotoxicity | no or very low cytotoxicity | –
4 | COC(C)c1cc(O)cc2c1-c1ccc(O)c(C)c1CC2 (stereo not drawn) [effususol A] | not cytotoxic | not cytotoxic | – | – | – | –
5 | COc1cccc2c1C(=O)c1c(O)c3c(c(O)c1C2=O)C[C@@](O)(C(=O)CO)C[C@@H]3O[C@H]1C[C@H](N)[C@H](O)[C@H](C)O1 [doxorubicin, reference compound] | – | – | – | – | – | IC50 ([3]; Homo sapiens, MDA-MB-231, 48 h): 0.8 µM; IC50 ([1]; Mus musculus, 4T1, 48 h): 3.4 µM; IC50 ([4]; Homo sapiens, hCMEC/D3): 0.8 µM
6 | Gerardiin K [Compound 11] | – | – | cytotoxic | cytotoxic | cytotoxic | IC50 [3]: > 10 µM; IC50 [1]: 8.1 µM; IC50 [4]: 10.6 µM
7 | C=Cc1cc(O)cc2c1-c1ccc(OC)c(C)c1CC2 [7-hydroxy-2-methoxy-1-methyl-5-vinyl-9,10-dihydrophenanthrene] | not cytotoxic | not cytotoxic | – | – | – | –
8 | C=Cc1cc(O)c(Cc2c(O)cc(C=C)c3c2ccc2c(C)c(O)ccc23)c2c1-c1ccc(O)c(C)c1CC2 [Compound 12, Gerardiin L] | – | – | cytotoxic | cytotoxic | cytotoxic | IC50 ([3]; Homo sapiens, MDA-MB-231, 48 h): 7.3 µM; IC50 [1]: > 10 µM; IC50 ([1]; Mus musculus, 4T1, 48 h): 11.7 µM; IC50 ([4]; Homo sapiens, hCMEC/D3): 13.7 µM
9 | C=Cc1c(C)c(O)cc2c1-c1ccc(O)c(C)c1CC2 [juncusol] | moderate cytotoxicity | moderate cytotoxicity | – | – | – | antiproliferative activity against HeLa cervical cancer cells [5]: antiproliferative activity
10 | Cc1c(O)ccc2c1CCc1cc(O)cc(CO)c1-2 [2,7-dihydroxy-5-hydroxymethyl-1-methyl-9,10-dihydrophenanthrene] | not cytotoxic | not cytotoxic | – | – | – | –
11 | C=C[C@@]1(C)C(=O)C2=C(C[C@H]1O)c1ccc(O)c(C)c1CC2 [jinflexin C] | – | moderate cytotoxicity | – | – | – | –
12 | C=Cc1cc(O)cc2c1-c1cc(-c3cc4c(c(C)c3O)CCc3cc(O)cc(C=C)c3-4)c(O)c(C)c1CC2 [Compound 15, Effususin A] | – | – | cytotoxic | cytotoxic | cytotoxic | toxicity in A2780 human ovarian cancer cells [6]: moderate toxicity
13 | C=Cc1cc(O)cc2c1-c1ccc(O)c(C)c1CC2 [Compound 13, effusol] | – | – | no or very low cytotoxicity | no or very low cytotoxicity | no or very low cytotoxicity | –
14 | C=Cc1c(C)c(O)cc2c1-c1ccc(OC)c(C)c1CC2 [compressin A] | not cytotoxic | not cytotoxic | – | – | – | –
15 | Gerardiin J [Compound 10] | – | – | cytotoxic | cytotoxic | cytotoxic | IC50 [3]: 6.6 µM; IC50 [1]: 5.6 µM; IC50 [4]: 15.7 µM
